From PubChem BioAssay AID1259407 (Chemical Carcinogenesis Research Information System (CCRIS), 2018)
Calls of active or inactive are those of the source. How the calls were made is not given here.

System: CCRIS mutagenicity, Ames/micronucleus/aberration tests
Test: CCRIS mutagenicity studies
[1] = Test System: AMES SALMONELLA TYPHIMURIUM, Strain/Indicator: TA98, Metabolic Activation: NONE, Method: STANDARD PLATE
[2] = Test System: AMES SALMONELLA TYPHIMURIUM, Strain/Indicator: TA100, Metabolic Activation: NONE, Method: STANDARD PLATE
[3] = Test System: AMES SALMONELLA TYPHIMURIUM, Strain/Indicator: TA1535, Metabolic Activation: NONE, Method: STANDARD PLATE
[4] = Test System: AMES SALMONELLA TYPHIMURIUM, Strain/Indicator: TA100, Metabolic Activation: RAT, LIVER, S-9, AROCLOR 1254, Method: STANDARD PLATE
[5] = Test System: AMES SALMONELLA TYPHIMURIUM, Strain/Indicator: TA1535, Metabolic Activation: RAT, LIVER, S-9, AROCLOR 1254, Method: STANDARD PLATE
[6] = Test System: AMES SALMONELLA TYPHIMURIUM, Strain/Indicator: TA98, Metabolic Activation: RAT, LIVER, S-9, AROCLOR 1254, Method: STANDARD PLATE
[7] = Test System: AMES SALMONELLA TYPHIMURIUM, Strain/Indicator: TA98, Metabolic Activation: NONE, Method: PREINCUBATION
[8] = Test System: AMES SALMONELLA TYPHIMURIUM, Strain/Indicator: TA100, Metabolic Activation: NONE, Method: PREINCUBATION

## CCCCCCCCCCCCCCCCCCCCCCO
[1]
  mutagenic call: inactive; negative
Test System: AMES SALMONELLA TYPHIMURIUM, Strain/Indicator: TA98, Metabolic Activation: RAT LIVER S-9, Method: STANDARD PLATE
  mutagenic call: inactive; negative
[2]
  mutagenic call: inactive; negative
Test System: AMES SALMONELLA TYPHIMURIUM, Strain/Indicator: TA100, Metabolic Activation: RAT LIVER S-9, Method: STANDARD PLATE
  mutagenic call: inactive; negative
[3]
  mutagenic call: inactive; negative
Test System: AMES SALMONELLA TYPHIMURIUM, Strain/Indicator: TA1535, Metabolic Activation: RAT LIVER S-9, Method: STANDARD PLATE
  mutagenic call: inactive; negative
Test System: AMES SALMONELLA TYPHIMURIUM, Strain/Indicator: TA1537, Metabolic Activation: NONE, Method: STANDARD PLATE
  mutagenic call: inactive; negative
Test System: AMES SALMONELLA TYPHIMURIUM, Strain/Indicator: TA1537, Metabolic Activation: RAT LIVER S-9, Method: STANDARD PLATE
  mutagenic call: inactive; negative
Test System: AMES SALMONELLA TYPHIMURIUM, Strain/Indicator: TA1538, Metabolic Activation: NONE, Method: STANDARD PLATE
  mutagenic call: inactive; negative
Test System: AMES SALMONELLA TYPHIMURIUM, Strain/Indicator: TA1538, Metabolic Activation: RAT LIVER S-9, Method: STANDARD PLATE
  mutagenic call: inactive; negative
Test System: CHINESE HAMSTER V-79, Strain/Indicator: V-79 (HGPRT)/THIOGUANINE, Metabolic Activation: NONE, Method: STANDARD PLATE
  mutagenic call: inactive; negative
Test System: CHINESE HAMSTER V-79, Strain/Indicator: V-79 (HGPRT)/THIOGUANINE, Metabolic Activation: RAT LIVER S-9, Method: STANDARD PLATE
  mutagenic call: inactive; negative

## O=C(CCl)CCl
[1]
  mutagenic call: inactive; negative
Test System: AMES SALMONELLA TYPHIMURIUM, Strain/Indicator: TA100, Metabolic Activation: NONE, Method: FLUCTUATION TEST
  mutagenic call: active; positive
[2]
  mutagenic call: active; positive
Test System: AMES SALMONELLA TYPHIMURIUM, Strain/Indicator: TA100, Metabolic Activation: RAT, LIVER, S-9, AROCLOR 1254, Method: FLUCTUATION TEST
  mutagenic call: inactive; negative
[4]
  mutagenic call: active; positive
[3]
  mutagenic call: active; positive
[5]
  mutagenic call: active; positive

## c1ccc2c(c1)-c1cccc3cc4ccccc4c-2c13
[1]
  mutagenic call: inactive; negative
[6]
  mutagenic call: inactive; negative
[4]
  mutagenic call: active; positive

## C1CCCCCC2OC2CCCC1 (centres undefined)
[2]
  mutagenic call: inactive; negative
[4]
  mutagenic call: inactive; negative
[3]
  mutagenic call: inactive; negative
[5]
  mutagenic call: inactive; negative
Test System: UDS RAT HEPATOCYTES, Strain/Indicator: THY INCORP, Metabolic Activation: NONE
  mutagenic call: inactive; negative

## O[C@H]1[C@@H]2O[C@@H]2c2c(ccc3cc4c(ccc5ccccc54)nc23)[C@@H]1O
[7]
  mutagenic call: active; positive
Test System: AMES SALMONELLA TYPHIMURIUM, Strain/Indicator: TA98, Metabolic Activation: RAT, LIVER, AROCLOR 1254, NADPH GENERATING SYSTEM, Method: STANDARD PLATE
  mutagenic call: active; positive
[8]
  mutagenic call: active; positive
Test System: AMES SALMONELLA TYPHIMURIUM, Strain/Indicator: TA100, Metabolic Activation: RAT, LIVER, AROCLOR 1254, NADPH GENERATING SYSTEM, Method: STANDARD PLATE
  mutagenic call: active; positive
Test System: CHINESE HAMSTER V-79, Strain/Indicator: V-79/8-AZAGUANINE, Metabolic Activation: NONE
  mutagenic call: active; positive
Test System: CHINESE HAMSTER V-79, Strain/Indicator: V-79/8-AZAGUANINE, Method: STANDARD PLATE
  mutagenic call: active; positive

## Cc1nc2ccc(N)cc2nc1C
[7]
  mutagenic call: active; positive
Test System: AMES SALMONELLA TYPHIMURIUM, Strain/Indicator: TA98, Metabolic Activation: RAT, LIVER, S-9, PCB, Method: PREINCUBATION
  mutagenic call: active; positive
[8]
  mutagenic call: inactive; negative
Test System: AMES SALMONELLA TYPHIMURIUM, Strain/Indicator: TA100, Metabolic Activation: RAT, LIVER, S-9, PCB, Method: PREINCUBATION
  mutagenic call: active; positive

## CC1=C(C(=O)Nc2ccccc2)SCCO1
Test System: AMES SALMONELLA TYPHIMURIUM, Strain/Indicator: TA97A, Metabolic Activation: NONE, Method: STANDARD PLATE
  mutagenic call: inactive; negative
Test System: AMES SALMONELLA TYPHIMURIUM, Strain/Indicator: TA97A, Metabolic Activation: PLANT, HOMOGENATE, S-14, Method: STANDARD PLATE
  mutagenic call: inactive; negative
Test System: AMES SALMONELLA TYPHIMURIUM, Strain/Indicator: TA97A, Metabolic Activation: S-9, Method: STANDARD PLATE
  mutagenic call: inactive; negative
[1]
  mutagenic call: inactive; negative
Test System: AMES SALMONELLA TYPHIMURIUM, Strain/Indicator: TA98, Metabolic Activation: PLANT, HOMOGENATE, S-14, Method: STANDARD PLATE
  mutagenic call: inactive; negative
Test System: AMES SALMONELLA TYPHIMURIUM, Strain/Indicator: TA98, Metabolic Activation: S-9, Method: STANDARD PLATE
  mutagenic call: inactive; negative
[2]
  mutagenic call: inactive; negative
Test System: AMES SALMONELLA TYPHIMURIUM, Strain/Indicator: TA100, Metabolic Activation: PLANT, HOMOGENATE, S-14, Method: STANDARD PLATE
  mutagenic call: inactive; negative
Test System: AMES SALMONELLA TYPHIMURIUM, Strain/Indicator: TA100, Metabolic Activation: S-9, Method: STANDARD PLATE
  mutagenic call: inactive; negative
[3]
  mutagenic call: inactive; negative
Test System: AMES SALMONELLA TYPHIMURIUM, Strain/Indicator: TA1535, Metabolic Activation: PLANT, HOMOGENATE, S-14, Method: STANDARD PLATE
  mutagenic call: inactive; negative
Test System: AMES SALMONELLA TYPHIMURIUM, Strain/Indicator: TA1535, Metabolic Activation: S-9, Method: STANDARD PLATE
  mutagenic call: inactive; negative

## CN(C)c1ccc(C(=C2C=CC(=[N+](C)C)C=C2)c2ccc(N(C)C)cc2)cc1
Test System: AMES SALMONELLA TYPHIMURIUM, Strain/Indicator: TA97, Metabolic Activation: NONE, Method: STANDARD PLATE
  mutagenic call: inactive; negative
[1]
  mutagenic call: inactive; negative
[6]
  mutagenic call: inactive; negative
[2]
  mutagenic call: inactive; negative
[4]
  mutagenic call: inactive; negative
Test System: AMES SALMONELLA TYPHIMURIUM, Strain/Indicator: TA104, Metabolic Activation: NONE, Method: STANDARD PLATE
  mutagenic call: inactive; negative
[3]
  mutagenic call: inactive; negative
[5]
  mutagenic call: inactive; negative
Test System: CHINESE HAMSTER OVARY, Strain/Indicator: CHO-AS52 (GPT)/6-THIOGUANINE, Metabolic Activation: RAT, LIVER, S-9, AROCLOR 1254
  mutagenic call: inactive; negative
Test System: CHINESE HAMSTER OVARY, Strain/Indicator: CHO-K1-BH4 (HPRT)/6-THIOGUANINE, Metabolic Activation: NONE
  mutagenic call: inactive; negative
Test System: CHINESE HAMSTER OVARY, Strain/Indicator: CHO-K1-BH4 (HPRT)/6-THIOGUANINE, Metabolic Activation: RAT, LIVER, S-9, AROCLOR 1254
  mutagenic call: inactive; negative
Test System: E. COLI, Strain/Indicator: DG1669, Metabolic Activation: NONE, Method: STANDARD PLATE
  mutagenic call: active; positive
Test System: E. COLI, Strain/Indicator: DG1669, Metabolic Activation: RAT, LIVER, S-9, AROCLOR 1254, Method: STANDARD PLATE
  mutagenic call: active; positive

## O=C(C(Cl)Cl)C(Cl)(Cl)Cl
[1]
  mutagenic call: active; positive
[2]
  mutagenic call: active; positive
